Reference: PMC9144276, “In Vitro and In Silico Evaluation of Cholinesterase Inhibition by Alkaloids Obtained from Branches of Abuta panurensis Eichler” (Molecules, 2022)
Where two headings read alike, the source gives them in different places.

Biological target: T1, acetylcholinesterase enzyme from an electric ray Tetronarce californica (Tetronarce californica, UniProt P04058)
T1 construct: purchased Sigma-Aldrich
Test: Acetylcholinesterase inhibition assay (Ellman method, 96-well microplates)
Format: biochemical
Details: for inhibition percentage toward the AChE enzyme: concentration not given
Procedure: An acetylcholinesterase enzyme from an electric ray Tetronarce californica (Sigma-Aldrich, St. Louis, MO, USA) was used for the experiments. The in vitro AChE inhibition assay was performed in 96-well microplates according to the methodology proposed by Ellman et al. and Senol et al. with some modifications. The alkaloid fraction and alkaloids were tested at concentrations of 2.8; 5.6; 11.2; 22.5; 45.0 and 90.0 µg/mL. Initially, 20 µL of each sample from the stock solution (1 mg/mL) were added and serial dilutions were performed. Then, 150 µL of a sodium phosphate buffer pH = 8 ([…]), 20 µL of 5,5’-dithio-bis(2- nitrobenzoic)acid (DTNB, 0.0025 M), and 20 µL of the acetylcholinesterase enzyme (1 U/mL) were added subsequently to each well at 25 °C and left for 15 min. The reaction was initiated by the addition of 10 µL of […] (AChI) (0.1 M). Neostigmine (0.28–9.0 μg/mL) was used as a positive control.
A thiocholine formed by the enzymatic hydrolysis of the AChI, reacts with the DTNB giving rise to a yellow 5-mercapto-2-nitrobenzoate anion. Concentration of the latter in each well was measured as absorbance at 405 nm by using a 96-well microplate reader ELx800^TM (Bio Tek Instruments, Inc., Winooski, VT, USA). The transformation was monitored for 30 min at 5-min intervals. The inhibition curve was plotted as the inhibition percent vs. concentration. All assays were performed in triplicate. Statistical analysis was performed with GraphPad Prism 7.0® software.

[1] = TcAChE, Ellman, 25 °C, pH 8, triplicate, read-out: IC50 for the acetylcholinesterase (AChE) inhibition assay

T1 sequence (P04058 22-586): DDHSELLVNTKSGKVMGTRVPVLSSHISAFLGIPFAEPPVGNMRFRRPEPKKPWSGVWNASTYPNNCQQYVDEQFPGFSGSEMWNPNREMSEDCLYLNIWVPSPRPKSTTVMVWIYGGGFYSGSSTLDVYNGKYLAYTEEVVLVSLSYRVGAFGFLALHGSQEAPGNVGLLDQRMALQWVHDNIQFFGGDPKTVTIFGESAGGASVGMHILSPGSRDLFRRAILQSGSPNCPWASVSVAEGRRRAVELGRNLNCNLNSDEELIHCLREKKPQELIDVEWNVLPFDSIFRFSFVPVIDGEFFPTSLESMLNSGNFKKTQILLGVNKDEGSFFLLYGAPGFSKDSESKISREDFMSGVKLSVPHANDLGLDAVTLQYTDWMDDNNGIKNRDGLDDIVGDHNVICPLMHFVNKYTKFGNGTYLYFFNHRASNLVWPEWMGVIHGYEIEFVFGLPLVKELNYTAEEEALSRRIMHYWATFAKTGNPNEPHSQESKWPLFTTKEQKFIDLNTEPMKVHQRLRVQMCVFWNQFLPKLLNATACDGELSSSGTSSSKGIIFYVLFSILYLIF

## COc1cc2c3c(c1OC)C1(C=CC(=O)C=C1)CC3NCC2 (stereo not shown) [stepharine 2, stepharine]
[1]
  IC50: 61.24 ± 0.03 µM
TcAChE
  inhibition percentage toward the AChE enzyme: above 70%

## COc1cc2c(cc1O)C(Cc1ccc(O)c(Oc3cc4c(cc3OC)CCNC4Cc3ccc(O)cc3)c1)NCC2 (single isomer, unassigned) [lindoldhamine isomer 1, Lindoldhamine isomer]
[1]
  IC50: 39.38 ± 0.08 µM
TcAChE
  inhibition percentage toward the AChE enzyme: above 70%

## CN(CCCCNC(=O)/C=C/c1ccccc1)CCCNC(=O)/C=C/c1ccccc1 [5-N-methylmaytenine 4, 5-N-methylmaytenine]
  IC50: 19.55 ± 0.09 µM
TcAChE
  inhibition percentage toward the AChE enzyme: above 70%

## COc1cc2c(cc1OC)-c1cc3ccc(OC)c(OC)c3c[n+]1CC2 [palmatine 3, palmatine]
[1]
  IC50: 35.25 ± 0.04 µM
TcAChE
  inhibition percentage toward the AChE enzyme: above 70%

## CN(C)C(=O)Oc1cccc([N+](C)(C)C)c1 [neostigmine, reference compound]
[1]
  IC50: 3.72 ± 0.03 µM
TcAChE
  inhibition percentage toward the AChE enzyme: above 70%
